According to the NIST ThermoML archive (doi:10.1016/j.jct.2019.05.002):
Numbers after ± are expanded uncertainties.

Columns and labels:
[1] = 100 kPa, Liquid; for speed of sound: Frequency=3 MHz, Single path-length method; for mass density: Vibrating tube method
[2] = xn = mol fraction of the nth substance listed; conditions: 100 kPa, Liquid, x1 = 1; for speed of sound: Frequency=3 MHz, Single path-length method; for mass density: Vibrating tube method

SMILES | speed of sound ([1]; 298.15 K) [m/s] | mass density ([1]; 298.15 K) [kg/m3] | speed of sound ([1]; 303.15 K) [m/s] | mass density ([1]; 303.15 K) [kg/m3] | speed of sound ([1]; 308.15 K) [m/s] | mass density ([1]; 308.15 K) [kg/m3] | speed of sound ([1]; 313.15 K) [m/s] | mass density ([1]; 313.15 K) [kg/m3] | speed of sound ([1]; 318.15 K) [m/s] | mass density ([1]; 318.15 K) [kg/m3] | speed of sound ([1]; 323.15 K) [m/s] | mass density ([1]; 323.15 K) [kg/m3] | speed of sound ([2]; 298.15 K) [m/s] | mass density ([2]; 298.15 K) [kg/m3] | speed of sound ([2]; 303.15 K) [m/s] | mass density ([2]; 303.15 K) [kg/m3] | speed of sound ([2]; 308.15 K) [m/s] | mass density ([2]; 308.15 K) [kg/m3] | speed of sound ([2]; 313.15 K) [m/s] | mass density ([2]; 313.15 K) [kg/m3] | further results
CCC(O)CO (centres undefined) [1,2-butanediol] | 1452.5 ± 1.4 | 998.56 ± 2 | 1437.9 ± 1.4 | 994.75 ± 2 | 1423.3 ± 1.4 | 990.92 ± 2 | 1408.7 ± 1.4 | 987.11 ± 2 | 1394.1 ± 1.4 | 983.28 ± 2 | 1379.5 ± 1.4 | 979.46 ± 2 |  |  |  |  |  |  |  |  | 
CC(O)CCO (centres undefined) [1,3-butanediol] | 1527.9 ± 1.4 | 1001.87 ± 2 | 1514 ± 1.4 | 998.41 ± 2 | 1500.1 ± 1.4 | 994.94 ± 2 | 1486.2 ± 1.4 | 991.49 ± 2 | 1472.3 ± 1.4 | 988.02 ± 2 | 1458.4 ± 1.4 | 984.56 ± 2 |  |  |  |  |  |  |  |  | 
OCCCCO [1,4-butanediol] | 1601.9 ± 1.1 | 1012.8 ± 2 | 1590.3 ± 1.1 | 1009.77 ± 2 | 1578.6 ± 1.1 | 1006.74 ± 2 | 1567 ± 1.1 | 1003.7 ± 2 | 1555.3 ± 1.1 | 1000.67 ± 2 | 1543.7 ± 1.1 | 997.63 ± 2 |  |  |  |  |  |  |  |  | 
CCCC(=O)OCC [ethyl butanoate] | 1171.8 ± 1 | 874.31 ± 2 | 1151.1 ± 1 | 868.85 ± 2 | 1130.2 ± 1 | 863.4 ± 2 | 1109 ± 1 | 857.94 ± 2 | 1088 ± 1 | 852.49 ± 2 | 1067.1 ± 1 | 847.03 ± 2 |  |  |  |  |  |  |  |  | 
CCCC(=O)OCC [ethyl butanoate] + CC(O)CCO |  |  |  |  |  |  |  |  |  |  |  |  | 1171.8 ± 1 | 874.31 ± 2 | 1151.1 ± 1 | 868.85 ± 2 | 1130.2 ± 1 | 863.4 ± 2 | 1109 ± 1 | 857.94 ± 2 | speed of sound ([2]; 318.15 K): 1088 ± 1 m/s; mass density ([2]; 318.15 K): 852.49 ± 2 kg/m3; speed of sound ([2]; 323.15 K): 1067.1 ± 1 m/s; mass density ([2]; 323.15 K): 847.03 ± 2 kg/m3
CCCC(=O)OCC [ethyl butanoate] + CCC(O)CO |  |  |  |  |  |  |  |  |  |  |  |  | 1171.8 ± 1 | 874.31 ± 2 | 1151.1 ± 1 | 868.85 ± 2 | 1130.2 ± 1 | 863.4 ± 2 | 1109 ± 1 | 857.94 ± 2 | speed of sound ([2]; 318.15 K): 1088 ± 1 m/s; mass density ([2]; 318.15 K): 852.49 ± 2 kg/m3; speed of sound ([2]; 323.15 K): 1067.1 ± 1 m/s; mass density ([2]; 323.15 K): 847.03 ± 2 kg/m3
CCCC(=O)OCC [ethyl butanoate] + OCCCCO |  |  |  |  |  |  |  |  |  |  |  |  | 1171.8 ± 1 | 874.31 ± 2 | 1151.1 ± 1 | 868.85 ± 2 | 1130.2 ± 1 | 863.4 ± 2 | 1109 ± 1 | 857.94 ± 2 | speed of sound ([2]; 318.15 K): 1088 ± 1 m/s; mass density ([2]; 318.15 K): 852.49 ± 2 kg/m3; speed of sound ([2]; 323.15 K): 1067.1 ± 1 m/s; mass density ([2]; 323.15 K): 847.03 ± 2 kg/m3
